Tested on: Nrf2
Assay: Ergothioneine-induced Nrf2 nuclear translocation after kinase inhibitor pretreatment (Western blot)
Assay type: cell-based, human
Conditions: inhibitor 2.5 μM 30 minutes, then 500 nM ergothioneine 1 hour
Procedure: Given that the ergothioneine can activate the Nrf2 to induce the expression of the downstream antioxidant genes; this example further investigates the pathway of the Nrf2 activated by the ergothioneine.
The HaCaT cells are incubated with respective pharmacological inhibitors of p38 (SB203580; 20 μM), ERK (PD98059; 20 μM), JNK (SP600125; 20 μM), PI3K (LY294002; 20 μM), PKC (GF109203X; 2.5 μM), or ROS (NAC; 1 mM) for 30 minutes, and then incubated with 500 nM ergothioneine for 1 hour. After the incubation, nuclear extracts and cytosolic extracts are collected to observe the expression of the Nrf2 nuclear translocation. FIG. 12 illustrates that the ergothioneine induces a Nrf2-mediated antioxidant signaling pathway. The data result is represented by mean±SD values; n=3, wherein * represents ρ<0.05 compared to the control group.

Structure (SMILES): CN(C)CCCn1cc(C2=C(c3c[nH]c4ccccc34)C(=O)NC2=O)c2ccccc21 [GF109203X]
- expression of the Nrf2 nuclear translocation: significantly inhibited

— patent US20160067221A1, “USE OF ERGOTHIONEINE FOR INDUCING ACTIVITY OF NRF2 IN CELL” (China Medical University, priority 2014, published 2016)
